Patent publication US5340802A, “Peptide analog type-B CCK receptor ligands” (Abbott Laboratories, priority 1993, dated 1994)

How the values were obtained:
Type-A CCK receptors = target: T1, Type-A CCK receptors (Cavia porcellus, UniProt Q63931); assay: Radioligand binding ([125I]BH-CCK-8) in guinea pig pancreatic membrane preparations; conditions: pancreatic membranes, 37° C., 150 minutes, read-out: IC50 (nM) Pancreas (Type A)
T1 construct: Cortical and pancreatic membranes were prepared as described; from tissue; host or cells: guinea pig pancreas membranes
T1 sequence (Q63931 1-430): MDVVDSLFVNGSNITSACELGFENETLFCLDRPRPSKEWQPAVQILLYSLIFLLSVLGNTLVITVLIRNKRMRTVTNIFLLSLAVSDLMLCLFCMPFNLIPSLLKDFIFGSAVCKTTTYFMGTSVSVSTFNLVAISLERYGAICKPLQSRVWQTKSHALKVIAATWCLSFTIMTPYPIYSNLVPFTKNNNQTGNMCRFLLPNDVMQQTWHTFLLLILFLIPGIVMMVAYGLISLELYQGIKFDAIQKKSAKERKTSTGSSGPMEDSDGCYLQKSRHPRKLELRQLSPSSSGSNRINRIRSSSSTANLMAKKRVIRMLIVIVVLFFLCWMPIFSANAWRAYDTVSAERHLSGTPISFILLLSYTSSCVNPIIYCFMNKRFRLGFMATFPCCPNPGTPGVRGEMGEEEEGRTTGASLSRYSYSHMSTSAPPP

Type-B CCK receptors = target: T2, Type-B CCK receptors (Cavia porcellus, UniProt H0VZC5); assay: Radioligand binding ([125I]BH-CCK-8) in guinea pig cerebral cortical membrane preparations; conditions: cortical membranes, 30° C., 150 minutes, read-out: IC50 (nM) cortex (Type B)
T2 construct: Cortical and pancreatic membranes were prepared as described; from tissue; host or cells: guinea pig cerebral cortex membranes
T2 sequence (H0VZC5 1-426): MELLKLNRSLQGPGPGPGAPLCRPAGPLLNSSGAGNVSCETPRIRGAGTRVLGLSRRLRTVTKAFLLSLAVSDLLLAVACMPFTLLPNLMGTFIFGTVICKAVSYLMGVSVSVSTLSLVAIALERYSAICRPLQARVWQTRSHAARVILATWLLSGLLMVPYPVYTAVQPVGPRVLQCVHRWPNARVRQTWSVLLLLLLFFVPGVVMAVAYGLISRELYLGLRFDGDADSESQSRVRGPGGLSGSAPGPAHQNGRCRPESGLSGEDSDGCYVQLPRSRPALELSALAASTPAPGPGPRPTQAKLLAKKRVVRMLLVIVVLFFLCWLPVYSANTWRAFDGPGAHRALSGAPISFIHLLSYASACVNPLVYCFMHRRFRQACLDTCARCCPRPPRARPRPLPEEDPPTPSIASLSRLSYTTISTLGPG
Procedure: CCK-8 (Asp-Tyr(SO3 H)-Met-Gly-Trp-Met-Asp-Phe-NH2), bestatin and phosphoramidon were purchased from Peptide International (Louisville, Ky.). EGTA, HEPES, BSA were purchased from Sigma Chemical Co. (St. Louis, Mo.). […] Male guinea pigs, 250 to 325 g, were obtained from Scientific Small Animal Laboratory and Farm (Arlington Heights, Ill.). Collagenase, code CLSPA, was purchased from Worthington (Frehold, N.J.).
Cortical and pancreatic membranes were prepared as described (Lin and Miller; J. Pharmacol. Exp. Ther., 1985, 232:775-780). In brief, pancreas and cortex were removed and rinsed with ice-cold saline. Visible fat and connective tissues were removed from the pancreas. Tissues were weighed and homogenized in approximately 25 mL of ice-cold 50 mM Tris-HCl buffer, pH 7.4 at 4° C. with a Brinkman Polytron for 30 seconds, setting 7. The homogenates were centrifuged for 10 minutes at 1075×g and the pellet was discarded. The supernantants were saved and centrifuged at 38,730×g for 20 minutes. The resultant pellets were rehomogenized in 25 mL of 50 mM Tris-HCl buffer with a Teflon-glass homogenizer, 5 up and down strokes. The homogenates were centrifuged again at 38,730×g for 20 minutes. The pellets were then resuspended in 20 mM HEPES, containing 1 mM EGTA, 118 mM NaCl, 4.7 mM KCl, 5 mM MgCl2, 100 μ M bestatin, 3 μM phosphoramidon, pH 7.4 at 22° C. with a Teflon-glass homogenizer, 15 up and down strokes. The resuspension volume used for the cortex was 15 mL per g of original wet weight and 60 mL per g for pancreas.
To 1 mL Skatron polystyrene tubes were added 25 uL of test compounds, 25 uL of [^125 I]BH-CCK8 and 200 uL of membrane suspension. The final BSA concentration was 0.1%. The cortical tissues (source of Type-B CCK receptors) were incubated at 30° C. for 150 minutes and pancreatic tissues (source of Type-A CCK receptors) were incubated at 37° C. for 150 minutes. Incubations were terminated by filtration using a Skatron Cell Harvester and SS32 microfiber filter mats. […] IC50 values were determined from the Hill analysis.

IC50 (Type-A CCK receptors) | IC50 (Type-B CCK receptors) | Compound
> 10000 nM | 16 nM | CC(C)C[C@H](NC(=O)[C@@H]1Cc2c[nH]c3cccc(c23)CC(=O)N1)C(=O)N[C@@H](CC(=O)O)C(=O)N/C(=C\c1ccccc1)C(N)=O [Example 14, Ctp-Leu-Asp-(dehydro)Phe-NH2]
4770 nM | 18 nM | CCC[C@@H]1CCN(C(=O)[C@@H]2Cc3c[nH]c4cccc(c34)CC(=O)N2)[C@@H]1C(=O)N[C@@H](CC(=O)O)C(=O)N[C@@H](Cc1ccccc1)C(N)=O [Example 35, Ctp-Cpp-Asp-Phe-NH2]
1300 nM | 8.4 nM | NC(=O)[C@H](Cc1ccccc1)NC(=O)[C@H](CC(=O)O)NC(=O)[C@@H]1CSCCN1C(=O)[C@@H]1Cc2c[nH]c3cccc(c23)CC(=O)N1 [Example 42, Ctp-(1,4-thiazane-3-carbonyl)-Asp-Phe-NH2]
11500 nM | 29.9 nM | NC(=O)[C@H](Cc1ccccc1)NC(=O)[C@H](CC(=O)O)NC(=O)[C@@H]1CCCCN1C(=O)[C@@H]1Cc2c[nH]c3cccc(c23)CC(=O)N1 [Example 43, Ctp-Pip-Asp-Phe-NH2]
